The experiment can be described thus: Inhibition of recombinant rat FAAH deltaTM mutant expressed in Escherichia coli using 14C-labeled oleamide as substrate preincubated for 3 hrs followed by substrate addition and measured by TLC based Dixon-plot analysis. Particulars: read-out: Ki(app).
`N#Cc1cnn(C(=O)NCCCCc2ccccc2)c1`: the Ki was determined as 0.018 µM. Under `CN(CCN(C)C(=O)n1cc(C#N)cn1)Cc1ccc(Oc2ccccc2)cc1` stands 0.002 µM. Under `Cc1ccc(CNC(=O)n2cccn2)cc1` stands greater than 5 µM. As for `O=C(N1CCN(Cc2ccc3ccccc3c2)CC1)n1cc(I)cn1`, the Ki was 0.00029 µM.

As to `Cc1cnn(C(=O)N2CCN(Cc3ccccc3)CC2)c1`, the Ki was 0.25 µM. Take `O=C(N1CCCN(Cc2cccc(Oc3ccccc3)c2)CC1)n1cccn1`: the Ki was determined as 0.0063 µM. Regarding `O=C(NCc1ccc(-c2ccccc2)cc1)n1cccn1`, the Ki was greater than 5 µM. Under `O=C(CCCCCc1ccccc1)n1cccn1` stands greater than 5 µM; under `O=C(OCCCCCc1ccccc1)n1cccn1`, greater than 5 µM; under `N#Cc1cnn(C(=O)N2CCCN(Cc3cccc(OCc4ccccc4)c3)CC2)c1`, 0.0007 µM. Take `Cc1cnn(C(=O)NCc2ccc3ccccc3c2)c1`: the Ki is greater than 5 µM. Under `O=C(N1CCN(Cc2cccc(OCc3ccccc3)c2)CC1)n1cccn1` stands 0.0058 µM; under `O=C(OCCCc1ccccc1)n1cccn1`, greater than 5 µM. Under `O=C(Nc1ccc2ccccc2c1)n1cccn1` stands greater than 5 µM; under `O=C(N1CCN(Cc2cccc(Oc3ccccc3)c2)CC1)n1cccn1`, 0.0061 µM. Under `Cc1cnn(C(=O)Cc2ccc3ccccc3c2)c1` stands 5 µM. Take `Cc1cnn(C(=O)OCCCCc2ccccc2)c1`: the Ki is greater than 5 µM. Under `Cc1cnn(C(=O)OCc2ccc(Oc3ccccc3)cc2)c1` stands 0.58 µM. As to `O=C(OCCCCc1ccccc1)n1cccn1`, the Ki came to 0.71 µM. Turning to `Cc1cnn(C(=O)NCCCCCc2ccccc2)c1`, the Ki amounted to 0.56 µM. Under `N#Cc1cnn(C(=O)Oc2ccc3ccccc3c2)c1` stands greater than 5 µM; under `N#Cc1cnn(C(=O)OCc2ccc3ccccc3c2)c1`, greater than 5 µM. As to `O=C(OCc1ccc(Oc2ccccc2)cc1)n1cccn1`, the Ki came to 0.46 µM. Under `CN(CCN(C)C(=O)n1cc(C#N)cn1)C(=O)OC(C)(C)C` stands 0.016 µM; under `Cc1cnn(C(=O)OCCCCCc2ccccc2)c1`, greater than 5 µM.

Consider `O=C(CCCCc1ccccc1)n1cccn1`, for which the Ki was greater than 5 µM. Under `Cc1ccc(CNC(=O)n2cc(C)cn2)cc1` stands greater than 5 µM; under `O=C(Cc1ccc(-c2ccccc2)cc1)n1cccn1`, greater than 5 µM. Regarding `O=C(NCCCc1ccccc1)n1cccn1`, the Ki stood at 0.98 µM.

On to `N#Cc1cnn(C(=O)OCCCc2ccccc2)c1`, for which the Ki worked out at 3.5 µM. In the case of `N#Cc1cnn(C(=O)OCc2ccc(-c3ccccc3)cc2)c1`, the Ki is greater than 5 µM. As to `O=C(N1CCN(Cc2ccccc2)CC1)n1cccn1`, the Ki came to 0.18 µM. Under `Cc1cnn(C(=O)N2CCN(Cc3ccc(Oc4ccccc4)cc3)CC2)c1` stands 0.21 µM. Under `CN(CCN(C)C(=O)n1cccn1)Cc1cccc(Oc2ccccc2)c1` stands 0.0057 µM; under `O=C(Oc1ccc2ccccc2c1)n1cccn1`, greater than 5 µM. Under `O=C(OCc1ccc(-c2ccccc2)cc1)n1cccn1` stands greater than 5 µM; under `N#Cc1cnn(C(=O)OCc2ccc(OCc3ccccc3)cc2)c1`, 0.145 µM. Consider `N#Cc1cnn(C(=O)CCCCCCc2ccccc2)c1`, for which the Ki is greater than 5 µM.

Consider `CN(CCN(C)C(=O)n1cccn1)Cc1ccc(Oc2ccccc2)cc1`, for which the Ki is 0.01 µM. Under `N#Cc1cnn(C(=O)CCCCc2ccccc2)c1` stands greater than 5 µM; under `O=C(OCc1ccc(OCc2ccccc2)cc1)n1cccn1`, 0.26 µM. Under `N#Cc1cnn(C(=O)NCc2ccc(-c3ccccc3)cc2)c1` stands greater than 5 µM; under `N#Cc1cnn(C(=O)NCc2ccc3ccccc3c2)c1`, greater than 5 µM. For `N#Cc1cnn(C(=O)OCc2ccc(Oc3ccccc3)cc2)c1`, the Ki stood at 0.06 µM. Under `Cc1ccc(COC(=O)n2cc(C)cn2)cc1` stands greater than 5 µM; under `N#Cc1cnn(C(=O)Cc2ccc(-c3ccccc3)cc2)c1`, greater than 5 µM; under `O=C(Cc1ccc2ccccc2c1)n1cccn1`, greater than 5 µM.

The values above are taken from ChEMBL document CHEMBL4316626, “N-Acyl pyrazoles: Effective and tunable inhibitors of serine hydrolases” (Bioorg Med Chem, 2019).
